“And” between values parts separate entries of the source, which are not always exact repeats. Equal values may be shown once. Ends that are not written are not given here.

Test [1] relates to cecal ligation and puncture (CLP) rat model of intestinal necrosis. The experiment in a line: Cecal ligation and puncture (CLP) survival model. The test is classed as in vivo. Conditions: for survival, multi-dose regimen: CLP rats, 40 mg/kg at 0.5, 24, 48 and 72 hours after surgery. On the procedure:
The previously established CLP model was utilized with modifications. Male Long-Evans rats (250-300 grams) were induced using 5% isoflurane with oxygen and anesthesia was maintained by isoflurane delivered via nose cone at 1.5-2% with oxygen. Adequate anesthesia was confirmed with a toe pinch. The surgical area (lower abdominal quadrants) was shaved, cleaned with 10% iodine and subsequently cleaned with 70% ethanol for a total of three times. For pain management, buprenorphine-SR (1 mg/kg) was given subcutaneously pre-op. For the surgical procedure, animals were in the supine position with their heads oriented away from the operator. After placing a sterile drape, a longitudinal midline incision (approximately 3-4 cm) was made with a sterile scalpel. After the initial incision, small scissors were used to enter the peritoneal cavity. The linea alba of the abdominal musculature was dissected away for intermuscular incision of fascial and peritoneal layers. The cecum was located and exteriorized, the remainder of the bowel was left in the peritoneal cavity. The mesentery of the cecum was dissected away with care taken to avoid damage to the cecal branch of the ileocecal artery and avoid bleeding complications. The cecum was ligated at 75% using sterile 3-0 non-absorbable suture. The cecum was perforated twice by through-and-through punctures using a sterile 18-gauge needle midway between the ligation and the tip of the cecum in a mesenteric-to-antimesenteric direction. The cecum was relocated into the abdominal cavity. The peritoneum was closed using 4-0 non-absorbable sutures and the skin was closed with sterile metallic wound clips. The animals received 5 mL of prewarmed (37° C.) normal saline subcutaneously for recovery. […] The peptide, consisting of the amino acid sequence […] (SEQ ID NO: 2) with a monodisperse, 24mer polyethylene glycol (PEG) tail, was manufactured by PolyPeptide Group (San Diego, CA) to >95% purity as verified by HPLC and mass spectrometry analysis. Lyophilized RLS-0071 was solubilized in 0.05 M Histidine buffer and pH adjusted to 6.5. […] Animals were monitored every 30 minutes for at least two hours post-surgery. Once bright, alert, and responsive, the animals were placed back into their home cage. A quantitative assessment of morbidity was conducted on the animals twice a day for the duration of the study. (Shrum, B., Anantha, R. V., Xu, S. X. et al. A robust scoring system to evaluate sepsis severity in an animal model. BMC Res Notes 7, 233 (2014). https://doi.org/10.1186/1756-0500-7-233). Scoring criteria included appearance, level of consciousness, activity, response to stimulus, eyes open vs. closed, respiration rate and respiration quality. […] The animals were subsequently monitored at a minimum of twice/day. […]

Test [2] relates to free DNA in plasma (biomarker for NETs). The experiment in a line: Plasma free DNA by PicoGreen in CLP rats. Conditions: single dose RLS-0071, 24 hours post-surgery. The test is classed as in vivo, rat. As for the experimental part: (§1) Blood samples were collected before surgery (pre-bleed) and 24 hours after surgery. Plasma was isolated from the blood and analyzed for free DNA concentration and cytokines levels as described below.
Free DNA was measured by PicoGreen in rat plasma samples as previously described Briefly, plasma samples were diluted in 10 mM Tris-HCl, 1 mM EDTA, pH 8.0 (TE) buffer and 50 uL of each sample was added to the wells along with 50 uL of a 1:200 dilution of PicoGreen (Life Technologies, Carlsbad, CA, USA) and incubated at room temperature for 10 minutes, protected from light. A DNA standard curve was prepared in TE buffer. The fluorescence was then read at an excitation wavelength of 485 nm and an emission wavelength of 520 nm using a BioTek microplate reader. All free DNA measurements were done in triplicate.

For the next test, the system named is IL-6. The test can be described thus: Plasma IL-6 ELISA in CLP rats. The test is classed as in vivo, rat. Conditions: single dose RLS-0071, 24 hours post-surgery. On the procedure:
as §1
The Rat IL-6 ELISA was purchased from R&D Systems. Plasma samples from experimental animals were run according to the manufacturer's instructions. Briefly, diluted rat plasma samples were added to wells pre-coated with capture IL-6 antibodies overnight. The plate was blocked for 60 min at room temperature with 1% BSA. 100 uL of plasma samples (diluted 1:4) or standards was added to the plate and incubated at room temperature for 2 hrs, then any unbound components were removed by washing. Next, 100 μL of detection IL-6 antibody (diluted 1:60) was added and incubated for 2 hrs at room temperature and washed. Next, 100 μL of streptavidin-horseradish peroxidase (HIRP) conjugate (diluted 1:40) was added and incubated in the dark for 20 minutes at room temperature. Following washing, 100 μL of 3,3′,5,5′-tetramethylbenzidine (TMB) substrate was added for approximately 5 minutes at room temperature. The reaction was stopped with the addition of 100 μL of sulfuric acid and absorbance measured at 450 nm using a BioTek microplate reader. Sample concentrations were calculated using an IL-6 standard curve made with 1:2 serial dilutions.

In a further test the test system is complement system. Conditions: previously demonstrated in vitro assays; cited from earlier work.

On to “IALILEPICCQERAA-PEG24 (IALILEPICCQERAA-dPEG24; cysteine pairing not given here) [RLS-0071, 15 amino acid peptide with a C-terminal monodisperse 24-mer PEGylated moiety]”, for which, in test [1], the “survival, multi-dose regimen” value is “significant increase in survival”. The survival in test [1] (male Long-Evans rats, 75% CLP, single dose 40 mg/kg i.v. 30 minutes after surgery, assessed up to 5 days, 40 mg/kg) was 80% and 50%. Moreover, the “increase in survival compared to no-rescue treatment group” value in test [1] (single dose 40 mg/kg i.v. 30 minutes after surgery) was 2.5 fold. Further, the “level of free DNA in blood compared to animals not receiving treatment” value in test [2] is “reduction in the level of free DNA”. Besides, in the test with IL-6, the “IL-6 level in blood compared with no-rescue-intervention animals” value is “reduction in IL-6”. In addition, the “inhibition of the complement system” value with complement system was “strong inhibition of the complement system”.
Take “IALILEP(Sar)CCQERAA (IALILEPXCCQERAA; sarcosine at position 8; MOD_RES (8)..(8) Sarcosine) [RLS-0088, PA peptide with isoleucine at position 8 replaced by sarcosine]”: the “survival, multi-dose regimen” value in test [1] is given as “increase in survival”.

Source of the values: patent US20240209036A1, “PEPTIDES AND METHODS OF USE” (priority 2021, published 2024).
